“Also recorded” adds a separate entry of the source.
Tests used:
SLC7A5 = target: T1, SLC7A5 (Mus musculus, UniProt Q9Z127); test: Uptake of 13C-labelled phenylalanine by CD4+ T cells; format: cell-based; settings: 0.5 h incubation
T1 construct: endogenous in cells; host or cells: Primary naive CD4+ T cells from splenocytes of C57BL/6 mice, used as Th0 cells and IL-12-induced Th1 cells
Method: Uptake of phenylalanine. Naive CD4^+ T cells were separated from the is splenocytes of 8-month-old C57BL/6 female mice using the Naive CD4^+ T cell Isolation Kit (Stem Cell, Cat No. 19765) and were induced to Th1 differentiation by 20 ng/mL IL-12. After 3 days, a total of 5×10^5 cells/well Th1 cells and Th0 cells in 0.5 mL of RPMI-1640 medium were plated into 48-well plates. ^13C-labelled phenylalanine and 5 mM amino transporter inhibitor BCH were added into indicated wells. After 0.5 h, cells were collected and washed twice with ice-cold D-PBS. 50 μL deionized water was added and cells were lysed through freezing and thawing twice at −80° C. The cell lysate was centrifuged at 12000×g for 10 min and ^13C-labelled phenylalanine in the supernatant was analyzed by Mass spectrometry.

5XFAD mice = test: JPH 203 in 5XFAD mice, Th1 cells in the brain by flow cytometry; format: in vivo, mouse; settings: 6-month-old 5XFAD mice, 50 mg/kg intraperitoneal every day for one month, vs vehicle
From the text: Flow cytometry sample preparation and analysis. Mice were anesthetized, blood samples were collected into EDTA-containing tubes, and red blood cells were removed using 1×red blood lysis buffer. Before tissue is collection, the brains were perfused with ice-cold PBS to avoid sampling the circulating blood immune cells, and the brains were removed, chopped into pieces and dissected according to the introduction of the Adult Brain Dissociation Kit (Miltenyi, Cat No. 130-107-677) using the gentleMACS dissociator (Miltenyi Biotec). The brain homogenate was filtered through a 70-μm cell strainer and centrifuged at 300×g for 5 min at 4° C. […] All samples were counted and adjusted to a density of 2-3 ×10^6/100 μL, labeled with a Live/Dead kit for 30 min, and then centrifuged at 500×g for 3 min at 4° C. […] Relevant negative control, Fluorescence Minus One (FMO) control and each fluorescence compensation sample were used to adjust fluorescence compensation and identify the populations of interest. Cells were acquired on a BD Aria III cytometer, and data were analyzed using FlowJo software.
Amino acids could be taken by immune cells through specific transporters. […] One month after the administration, the mice were euthanized, and the proportion of pro-inflammatory Th 1 cells in the brains of the mice in the control group and the JPH 203 treatment group was analyzed by flow cytometry. […]

WT mice (C57) = test: Intraperitoneal injection of phenylalanine and isoleucine, blood Th1 cells; format: in vivo, mouse; settings: intraperitoneal injection 50 mg/kg for 4 days
naive CD4+ T cells = test: In vitro differentiation and proliferation induced by phenylalanine and isoleucine; format: cell-based, mouse; settings: amino acid added directly to naive CD4+ T cell culture; for Th1 cell proliferation: CellTrace
Method: In Vitro differentiation and proliferation induced by phenylalanine and isoleucine. Naive CD4^+ T cells were separated from the splenocytes of 8-month-old C57BL/6 female mice using the Naive CD4^+ T cell Isolation Kit (Stem Cell, #19765), and the cells were stained with CellTrace (Thermo Fisher, #C34557). A total of 1×10^5 cells/well in 0.2 mL of RPMI-1640 medium were plated in 96-well plates, and the culture medium was supplemented with cytokines or blocking antibodies. Th0: 10 ng/mL mIL-2; Th1:10 ng/mL mIL-2, 5000 ng/mL 11B11. Phenylalanine (final concentration, 2 mmol/L), isoleucine (final concentration, 2 mmol/L) and OM1 (final concentration, 100 μg/mL) were added into the indicated wells, respectively. After incubation at 37° C. in 5% CO2 for 5 days, cells were acquired on a BD Fortessa cytometer, and data were analyzed using FlowJo software.

T1 sequence (Q9Z127 whole entry): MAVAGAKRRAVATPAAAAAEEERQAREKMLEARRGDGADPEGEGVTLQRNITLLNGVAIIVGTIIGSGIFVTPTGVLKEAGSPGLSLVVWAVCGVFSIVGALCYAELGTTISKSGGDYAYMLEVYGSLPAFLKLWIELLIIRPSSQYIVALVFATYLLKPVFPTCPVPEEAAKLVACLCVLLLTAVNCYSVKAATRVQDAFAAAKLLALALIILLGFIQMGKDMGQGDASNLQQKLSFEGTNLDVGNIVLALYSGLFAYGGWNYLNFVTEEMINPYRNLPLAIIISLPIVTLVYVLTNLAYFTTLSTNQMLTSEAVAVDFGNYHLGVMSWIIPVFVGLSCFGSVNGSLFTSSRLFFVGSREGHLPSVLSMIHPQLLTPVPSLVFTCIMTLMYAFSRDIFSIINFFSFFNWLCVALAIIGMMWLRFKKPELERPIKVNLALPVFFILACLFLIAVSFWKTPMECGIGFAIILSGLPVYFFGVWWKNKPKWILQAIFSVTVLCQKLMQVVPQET
T1 sequence (P10852 whole entry partner): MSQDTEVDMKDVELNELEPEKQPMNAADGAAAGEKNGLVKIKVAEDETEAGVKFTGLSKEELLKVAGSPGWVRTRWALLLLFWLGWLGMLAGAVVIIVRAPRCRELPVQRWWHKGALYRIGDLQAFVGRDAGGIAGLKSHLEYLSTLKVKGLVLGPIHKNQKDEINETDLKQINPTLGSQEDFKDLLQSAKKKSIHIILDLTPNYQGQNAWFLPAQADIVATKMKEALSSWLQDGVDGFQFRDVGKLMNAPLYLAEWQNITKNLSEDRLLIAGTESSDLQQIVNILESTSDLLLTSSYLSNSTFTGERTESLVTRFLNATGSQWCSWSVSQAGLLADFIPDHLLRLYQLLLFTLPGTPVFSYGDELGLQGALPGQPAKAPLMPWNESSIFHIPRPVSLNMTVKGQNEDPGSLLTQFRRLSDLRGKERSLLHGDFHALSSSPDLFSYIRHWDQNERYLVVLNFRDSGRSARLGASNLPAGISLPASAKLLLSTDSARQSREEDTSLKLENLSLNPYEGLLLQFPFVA

SMILES	uptake of 13C-labelled phenylalanine by CD4+ T cells (SLC7A5)	proportion of pro-inflammatory Th1 cells in the mouse brain (5XFAD mice; 50 mg/kg)	proportion of pro-inflammatory Th1 cells in the mouse brain (5XFAD mice; listed as JPH 203, 50 mg/kg)	Th1 cell count in the blood (WT mice (C57))	Th0 cell differentiation into Th1 cells (naive CD4+ T cells)	Th1 cell proliferation (naive CD4+ T cells)
Nc1cc(COc2c(Cl)cc(C[C@H](N)C(=O)O)cc2Cl)c2oc(-c3ccccc3)nc2c1 [JPH203]	blocked	effectively inhibits; also recorded: significantly downregulated	significantly reduces	–	–	–
CC[C@H](C)[C@H](N)C(=O)O [isoleucine]	–	–	–	increased significantly	increased	increased
N[C@@H](Cc1ccccc1)C(=O)O [phenylalanine]	–	–	–	increased significantly	increased	increased

Reference: patent US20220280578A1, “METHOD FOR TREATING ALZHEIMER'S DISEASE BY REGULATING INTESTINAL MICROORGANISMS” (SHANGHAI GREEN VALLEY PHARMACEUTICAL CO., LTD., priority 2019, published 2022)
